Experiments:
[1] = system: concanavalin A-induced hepatitis; assay: Concanavalin A-induced hepatitis model in mice, prophylactic; format: in vivo, mouse; conditions: BALB/c mice, oral 1 hr before Con A; compound F 1 mg/10 mL/kg, prednisolone 5 mg/10 mL/kg
Protocol: The prophylactic effect of compound F on hepatitis was investigated using concanavalin A (hereinafter Con A)-induced hepatitis model.
BALB/c mice (female, 7 weeks old, Japan SLC) were purchased, acclimated for 1 week and used for the study. Except the no-induction group, Con A (type IV, Sigma-Aldrich) dissolved in saline was administered from the tail vein of the mice at a dose of 12.5 mg/10 mL/kg to induce hepatitis. Twenty hr later, the mice were subjected to laparotomy under ether anesthesia. A 0.5 mL of blood sample was collected from the caudal vena cava and heparinized plasma was obtained to measure plasma ALT and AST activities. Test substances were compound F (1 mg/10 mL solution), prednisolone (Nacalai Tesque, 5 mg/10 mL suspension (with 0.5 w/v % methylcellulose)) and water for injection (administered to the control group), which were orally administered at a volume of 10 mL/kg 1 hr before Con A injection. Seven to 9 animals were used for each group. After logarithmic transformation of the data, one-way analysis of variance was performed for statistical evaluation.

[2] = system: dextran sodium sulfate-induced colitis; assay: Dextran sodium sulfate-induced colitis model in mice (BALB/c), prophylactic; format: in vivo, mouse; conditions: 2.2 w/v % DSS
Excerpt: The prophylactic effect of compound F on ulcerative colitis was examined in dextran sodium sulfate-induced colitis model.
Female BALB/c mice (6 weeks old, Japan SLC) were purchased, acclimated for 1 week and used for the study. Except the normal group, the mice were allowed to freely drink a dextran sodium sulfate (to be abbreviated as DSS, MP Biochemicals, M.W. 36,000-50,000, Lot No. 3439J) solution prepared to 2.2 w/v % for 9 days to induce colitis. Compound F was orally administered at doses of 0.1, 0.3 and 1 mg/kg, once a day, daily, from the start day of DSS drinking (day 0) to one day before autopsy (day 9). To the control group was orally administered a solvent (1 vol % ethanol solution) at 10 mL/kg in the same manner.
Thus, to determine the level of diarrhea, the stool was graded into 6 levels; normal (score 0), spherical stool being not less than 50% (score 1), banana-shaped stool being less than 50% (score 2), banana-shaped stool being not less than 50% (score 3), muddy stool (score 4), watery stool (score 6) (stool consistency score). The fecal occult blood (including proctorrhagia) was graded using fecal occult blood slide 5 Shionogi II (Shionogi & Co., Ltd.) into 6 levels; negative (no change of the slide color from yellow, score 0), weakly positive (slightly blue green, score 1), positive (blue green, score 2), moderately positive (clear blue green, score 3), strongly positive (instantaneous color change to dark blue with color developer, score 4), and proctorrhagia (score 5). The sum of the stool consistency score and occult blood score was defined as the stool score. Eight to 10 animals were used for each group, and the results were expressed as average±standard deviation. On the day of autopsy, after laparotomy under ether anesthesia and blood collection, the mice were exsanguinated to death. Then the large intestines were dissected from just below the cecum to the anus and the length thereof was measured.

[3] = system: indomethacin-induced small intestinal injury; assay: Indomethacin-induced small intestinal injury model in rats; format: in vivo, rat; conditions: SD rats, 30 min before and 6 hr after indomethacin
Excerpt: The suppressive effect of compound F on small intestinal injury was investigated using indomethacin-induced small intestinal injury model in rats. Administration of non-steroidal anti-inflammatory drugs (NSAIDs) is known to induce hemorrhagic injury in the small intestine of human.
Male SD rats, 7 weeks old (Charles River) were purchased, acclimated for 1 week and used for the study. The rats were grouped based on the body weight and subcutaneously administered with indomethacin (SIGMA, Lot No. 19F0018) at 15 mg/5 mL/kg to all groups to induce small intestinal injury. Compound F at doses of 0.01, 0.1 and 1 mg/kg was orally administered at a volume of 5 mL/kg 30 min before and 6 hr after the subcutaneous administration of indomethacin. To the control group was orally administered a solvent (1 vol % ethanol solution) at 5 mL/kg in the same manner. Eight animals were used for each group.
The rats were intravenously administered with 2 mL of 10 mg/mL Evans blue solution under ether anesthesia 23.5 hr after the indomethacin administration. After 30 min, the rats were bled to death from the abdominal aorta and caudal vena cava under ether anesthesia and the small intestine was isolated. […] The length and width of each ulcer were measured under a stereomicroscope, the area was calculated, and the sum thereof was taken as the total ulcer area.

[4] = system: ethanol-induced gastric mucosal injury; assay: Ethanol-induced gastric mucosal injury model in rats; format: in vivo, rat; conditions: SD rats, 30 min before ethanol
Excerpt: The suppressive effect of compound F on gastric mucosal injury was investigated in ethanol-induced gastric mucosal injury model in rats. This model is frequently used as an animal model of human acute gastritis associated with congestive mucosal injury (Reference K).
Male SD rats (7 weeks old, Charles River) were purchased through Oriental BioService Inc., acclimated for 1 week and used for the study. The rats were grouped based on the body weight, placed in a clean cage set with a wire mesh floor one day before the study, fasted for 19 hr (without water for last 3 hr), and orally administered with ethanol (special grade, Nacalai Tesque, Lot No. V8A5862, 1.5 mL) in all groups to induce gastric mucosal injury. Compound F was orally administered at doses of 0.01, 0.1 and 1 mg/kg 30 min before induction of gastric mucosal injury at a volume of 5 mL/kg. To the control group was orally administered a solvent (1 vol % ethanol solution) at 5 mL/kg in the same manner. Eight animals were used for each group.
The rats were bled to death from the abdominal aorta and caudal vena cava under ether anesthesia after 1 hr from the ethanol administration, and the stomach was isolated. […] The length and width of each ulcer were measured under a stereomicroscope, the area was calculated, and the sum thereof was taken as the total ulcer area.

Cc1cccc([C@@H](C)[C@H](O)/C=C/[C@@H]2[C@@H]3[C@H](C[C@H]2O)O/C(=C\CCCc2nnn[nH]2)C3(F)F)c1 [Compound F, 4-[(Z)-(1S,5R,6R,7R)-6-[(1E,3R,4R)-3-hydroxy-4-(m-tolyl)-1-pentenyl]-7-hydroxy-2-oxa-4,4-difluoro-bicyclo[3.3.0]octan-3-ylidene]-1-(tetrazol-5-yl)butane]
Effect on increase of plasma ALT and plasma AST activities [1]: significantly and strongly suppressed the increase | Suppression of the increase in the stool score ([2]; oral 0.1 mg/kg once a day): suppressive tendency | Effect on shortening of the large intestine ([2]; oral 0.1, 0.3 and 1 mg/kg once a day): dose-dependent suppressive effect | Suppression of the increase in the stool score ([2]; oral 0.3 and 1 mg/kg once a day): significant | Effect on total ulcer area (small intestine) ([3]; oral 1 mg/kg): completely reduced the area | Effect on total ulcer area (small intestine) ([3]; oral, from 0.1 mg/kg): significantly reduced the ulcer area in a dose-dependent manner | Effect on total ulcer area (stomach) ([4]; oral 1 mg/kg): almost completely reduced the area | Effect on total ulcer area (stomach) ([4]; oral, from 0.01 mg/kg (0.01, 0.1 and 1 mg/kg)): significantly reduced the total ulcer area in a dose-dependent manner
